Measurements published in patent US20070154962A1, “Bcl-2 promoted cell death” (priority 2005, published 2007).

Key:
Format in all cases: cell-based
PC12 cells [1] = experiment: Cell survival of naive PC12 cells transiently co-transfected with Bcl-2 or vector and BH4 or BH4Gly; conditions: transient (24 hr) transfection of the BH4 vector alone, without Bcl-2, FIG. 20
Description: FIG. 20: Cell survival was measured in PC12 cells transiently co-transfected with Bcl-2 or vector, and either vector, BH4 or BH4Gly.
(§1) The overall rationale of the experiment was to determine if domain interference disrupted Bcl-2/FKBP38 binding, changed Bcl-2's cellular localization (i.e., result in Bcl-2 misplacement at the nucleus) and ultimately promoted Bcl-2-triggered apoptosis. […] The rationale for using a peptide larger that the BH4 domain itself was to provide structure stability to the alpha-helix of the BH4 domain (AA 11-25) through sufficient flanking regions. Cells were further co-transfected with renilla luciferase so as to determine the extent of their survival. […] It is important to note that PC12 cells expressing Bcl-2 cells diddo not depend on Bcl-2 for their survival and therefore the effect of the BH4 peptide was not due to abolishment of Bcl-2 protection. Rather, it reflected an active induction of apoptosis by Bcl-2, triggered by the BH4 peptide. The possibility that PC12 cells expressing Bcl-2 may have undergone selection during the establishment of stable transfection that could have rendered them non-specifically sensitive to the BH4 peptide was excluded.

[2] = system: PC12 cells stably expressing vector or Bcl-2; experiment: Cell survival (renilla luciferase) of stably transfected PC12 cells transiently transfected with BH4 peptide vector; conditions: FIG. 19
Description: FIG. 19: Cell survival was measured in PC12 cells stably expressing vector or Bcl-2. These two cell lines were transiently co-transfected with luciferase and either vector, BH4 domain, or BH4Gly.
as §1

[3] = system: Human leukemia cells (HL-60); experiment: Cell death as LDH release in HL-60 cells transiently transfected with BH4 peptide-expressing vector; conditions: HL-60, 48 after transfection, vs. Flag or BH4Gly; FIG. 24
Description: The extent of cell death was assessed 48 after transfection as release of LDH in the cell culture medium.
The extent of cell death was assessed 48 after transfection as release of LDH in the cell culture medium. Statistical difference was vs. Flag or BH4Gly (Two-tailed Student “t” test; N=4-7 independent measurements per group).

PC12 cells [4] = experiment: Flow cytometry of sub-G1 nuclei from PC12 cells transiently transfected with Bcl-2-GFP and exposed to H2O2; conditions: treated cells compared with untreated controls; FIG. 5
Text: FIG. 5: Flow cytometry measuring apoptotic cells from PC12 cells transiently transfected with Bcl-2-GFP with and without H2O2 treatment.
An alternative explanation would be that Bcl-2 relocates to the nucleus in response to apoptosis. […] However, there was no increase in the percent of sub-G1 nuclei carrying Bcl-2-GFP in cells treated with H2O2 as compared to untreated cells. In fact, there was a paradoxical decrease, which is expected if one appreciates that the number of sub-G1 nuclei increased after H2O2 treatment without a concomitant increase of nuclear Bcl-2-GFP. Therefore, nuclear association of Bcl-2 was […] apoptosis.

| Molecule | cell survival (PC12 cells [1]) | induction of apoptosis / survival ([2]; PC12 cells not expressing Bcl-2 (empty vector pmKitNeo)) | survival of cells (renilla luciferase) ([2]; PC12 cells stably expressing Bcl-2, compared with BH4-transfected cells stably expressing empty pmKitNeo) | cell death (release of LDH in the cell culture medium) [3] | sub-G1 (apoptotic) nuclei (PC12 cells [4]) |
| --- | --- | --- | --- | --- | --- |
| BH4 peptide: vector-expressed peptide identical to the N-terminal 30 amino acids of Bcl-2, including the 11-25 BH4 domain (MAHAGRTGYDNREIVMKYIHYKLSQRGYEW; UniProt P10415 1-30, looked up, fragment) | did not affect cell survival | unaffected | significantly lower | effective in inducing cell death | – |
| OO [H2O2] | – | – | – | – | substantial increase |
